# Reference: patent US9359298B2, “Cajanine structure analogous compound, preparation method and use” (INSTITUTE OF MEDICINAL BIOTECHNOLOGY, CHINESE ACADEMY OF …, priority 2011, dated 2016)
# Where two headings read alike, the source gives them in different places.
# Tests used:
# Type in all cases: cell-based
# [1] = test system: Influenza A virus (hanfang359/95); assay: Determination of anti-influenza virus activity (CPE in MDCK cells); conditions: for IC50: Influenza A virus, MDCK, 36 h; for anti-influenza virus activities compared with the lead compound cajanine: statement in words
# [2] = test system: Coxsackie virus B6; assay: Coxsackie virus activity assay (CPE in Vero cells); conditions: Vero, read-out: COX-B6 IC50, Vero cells, about 100TCID50, CPE, Reed-Muench
# [3] = test system: HCV; assay: Anti-hepatitis C virus (HCV) activity assay (HCV RNA in Huh7.5 cells); conditions: for EC50: Hepatitis C virus, Huh7.5, 72 h, read-out: HCV EC50; for anti-HCV viral activity: statement in words
# Protocol: Inoculate Huh7.5 cells into 96-well plates to a density of 3×10^4 cells/cm^2, culture for 24h, infect the cells with 45 IU/cell HCV supernatant, meanwhile, add drug solutions or solvent control for treatment.
# [4] = test system: HIV-1 III B virus; assay: Anti-HIV activity assay (P24 antigen in MT-4 cells); conditions: for IC50: Human immunodeficiency virus 1, MT4, 96 h, read-out: HIV IC50; for anti-HIV viral activity: statement in words
# [5] = test system: PC12 cells; assay: Neuroprotective activity assay, serum-deprived injury to PC12 cells (MTT); conditions: for viability at 10 µM: Rattus norvegicus, PC-12, 48 h, 10 μM test compound, 48 h, Control 100.0 ± 9.2, Model 69.3 ± 4.1, read-out: serum-deprived (surviving PC12 cells, MTT 570 nm); for protective effect on serum-deprived injury to PC12 cells: statement in words
# Protocol: (§1) Discard the original culture media from confluent monolayers of PC12 cells (simulated neuronal cells), add DMEM complete medium with 5% FBS, 5% horse serum gently beat upon the cells with a pipette to completely disperse them, inoculate 100 μl cell suspension at a density of […] per well to 96 hole plates treated with poly-lysine (0.1 mg/ml) in advance, culture for 24h. Divide the experimenting cells into control group, model group and dosing groups. Add complete medium to the control group. Model groups includes rotenone group and serum-deprived group, add rotenone to the corresponding modules with a final concentration of 4 μM rotenone to take effect on the cells for 48 h, add serum-deprived groups with serum-free DMEM medium to take effect on the cells for 48 h. Dosing groups also includes two groups, one using rotenone module as model, another using serum-deprived module as model, and both add in 10 μM test compounds during modeling. 48h later, add 10 μl 5 mg/ml MTT, subsequently discard the supernatant 4h later and add in 150 μl DMSO, measure 570 nm absorbance to represent the numbers of surviving cells.
# [6] = test system: PC12 cells; assay: Neuroprotective activity assay, rotenone injury to PC12 cells (MTT); conditions: for viability at 10 µM: Rattus norvegicus, PC-12, 48 h, 10 μM test compound, 4 μM rotenone, 48 h, Control 100.0 ± 8.9, Model 73.2 ± 7.8, read-out: rotenone (surviving PC12 cells, MTT 570 nm); for protective effect on rotenone injury to PC12 cells: statement in words
# Protocol: as §1
# [7] = Huh7.5 cells, 72 h, HCV RNA by RT-PCR, Reed-Muench
# [8] = MT-4 cells, HIV-1 III B 100TCID50, 96 h, P24 antigen
Structure (SMILES),IC50 [1],IC50 [2],"EC50 [3, 7]","IC50 [4, 8]",viability at 10 µM [5],protective effect on serum-deprived injury to PC12 cells [5],viability at 10 µM [6],protective effect on rotenone injury to PC12 cells [6],anti-HCV viral activity [3],anti-HIV viral activity [4],anti-influenza virus activities compared with the lead compound cajanine [1],EC50 [3],IC50 [4]
"COc1cc(/C=C/c2ccncc2)c(C(=O)O)c(O)c1CC=C(C)C [Compound 1r, 2-hydroxy-3-isopentenyl-4-methoxy-6-[(E)-2-(pyridin-4-yl)ethenyl]benzoic acid]",6.36 µg/mL,6.35 µg/mL,6.79 µg/mL,6.53 µg/mL,84.3 ± 6.3%,the strongest activities,86.3 ± 5.4%,the strongest activities,–,–,–,–,–
COc1cc(/C=C(\C(=O)O)c2ccccc2)c(C(=O)O)c(O)c1CC=C(C)C [Compound 1s],0.54 µg/mL,0.85 µg/mL,0.84 µg/mL,0.75 µg/mL,89.8 ± 3.2%,–,88.7 ± 6.1%,–,"stronger anti-HIV, HCV viral activities","stronger anti-HIV, HCV viral activities",–,–,–
"COc1cc(/C=C/c2ccccn2)c(C(=O)O)c(O)c1CC=C(C)C [Compound 1t, 2-hydroxy-3-isopentenyl-4-methoxy-6-[(E)-2-(pyrid-2-yl)ethenyl]benzoic acid]",0.34 µg/mL,0.61 µg/mL,1.58 µg/mL,1.07 µg/mL,85.1 ± 2.1%,–,84.6 ± 1.2%,–,–,–,significantly stronger than the lead compound cajanine,–,–
"COc1cc(/C=C/c2cc(OC)c(OC)c(OC)c2)c(C(=O)O)c(O)c1CC=C(C)C [Compound 1u, 2-hydroxy-3-isopentenyl-4-methoxy-6-[(E)-(3,4,5-trimethoxystyryl)]benzoic acid]",0.21 µg/mL,0.14 µg/mL,0.84 µg/mL,0.16 µg/mL,89.3 ± 2.3%,the strongest activities,90 ± 3.2%,the strongest activities,"stronger anti-HIV, HCV viral activities","stronger anti-HIV, HCV viral activities",significantly stronger than the lead compound cajanine,–,–
"COc1ccnc(/C=C/c2cc(OC)c(CC=C(C)C)c(O)c2C(=O)O)c1 [Compound 1v, 2-hydroxy-3-isopentenyl-4-methoxy-6-[(E)-2-(4-methoxypyrid-2-yl)ethenyl]benzoic acid]",2.31 µg/mL,1.25 µg/mL,–,1.48 µg/mL,79.9 ± 1.6%,–,87.2 ± 2.6%,–,–,–,–,1.25 µg/mL,–
"COc1cc(/C=C/c2cc(O)ccn2)c(C(=O)O)c(O)c1CC=C(C)C [Compound 1w, 2-hydroxy-3-isopentenyl-4-methoxy-6-[(E)-2-(4-hydroxypyrid-2-yl)ethenyl]benzoic acid]",0.19 µg/mL,0.54 µg/mL,2.06 µg/mL,2.87 µg/mL,89.3 ± 5.4%,the strongest activities,88.9 ± 2.5%,the strongest activities,–,–,significantly stronger than the lead compound cajanine,–,–
COc1cc(/C=C/c2ccc(O)cn2)c(C(=O)O)c(O)c1CC=C(C)C [Compound 1y],4.25 µg/mL,5.84 µg/mL,0.86 µg/mL,0.63 µg/mL,87.6 ± 1.6%,–,89.7 ± 1.9%,–,"stronger anti-HIV, HCV viral activities","stronger anti-HIV, HCV viral activities",–,–,–
"COC(=O)c1c(/C=C/c2ccccc2)cc(OC)cc1OC [Compound 6, methyl 2,4-dimethoxy-6-[(E)-styryl]benzoate]",> 2.05 µg/mL,> 2.06 µg/mL,> 12.2 µg/mL,–,62.4 ± 7%,–,74.4 ± 5.2%,–,–,–,–,–,> 2.06 µg/mL
"COC(=O)c1c(/C=C/c2ccccc2)cc(OC)c(CC=C(C)C)c1O [Compound 8, methyl 2-hydroxy-3-isopentenyl-4-methoxy-6-[(E)-styryl]-benzoate]",0.69 µg/mL,3.56 µg/mL,0.79 µg/mL,1.06 µg/mL,76.6 ± 5.8%,–,78.9 ± 5.7%,–,"stronger anti-HIV, HCV viral activities","stronger anti-HIV, HCV viral activities",–,–,–
"COC(=O)c1c(/C=C/c2ccc(OC)cc2)cc(OC)c(CC=C(C)C)c1O [Compound 8c, methyl 2-hydroxy-3-isopentenyl-4-methoxy-6-[(E)-4-methoxystyryl]-benzoate]",> 2.06 µg/mL,4.79 µg/mL,3.06 µg/mL,1.99 µg/mL,67.3 ± 10%,–,71.9 ± 6.1%,–,–,–,–,–,–
"COC(=O)c1c(/C=C/c2c(OC)cccc2OC)cc(OC)c(CC=C(C)C)c1O [Compound 8d, methyl 2-hydroxy-3-isopentenyl-4-methoxy-6-[(E)-2,6-dimethoxystyryl]-benzoate]",> 6.17 µg/mL,> 9.26 µg/mL,5.17 µg/mL,0.86 µg/mL,82 ± 3.2%,the strongest activities,84.4 ± 3.6%,the strongest activities,–,–,–,–,–
"CC/C=C/c1cc(OC)c(CC=C(C)C)c(O)c1C(=O)OC [Compound 8h, methyl 2-hydroxy-3-isopentenyl-4-methoxy-6-[(E)-buten-1-yl]-benzoate]",1.92 µg/mL,> 2.06 µg/mL,1.42 µg/mL,2.66 µg/mL,35.4 ± 10.6%,–,72.4 ± 4.3%,–,–,–,–,–,–
"COC(=O)c1c(/C=C(\C)c2ccccc2)cc(OC)c(CC=C(C)C)c1O [Compound 8i, methyl 2-hydroxy-3-isopentenyl-4-methoxy-6-[(E)-2-phenylpropen-1-yl]-benzoate]",> 2.47 µg/mL,6.89 µg/mL,3.47 µg/mL,3.8 µg/mL,46.4 ± 16.6%,–,69.4 ± 2.6%,–,–,–,–,–,–
"COC(=O)c1c(/C=C/CCc2ccccc2)cc(OC)c(CC=C(C)C)c1O [Compound 8l, methyl 2-hydroxy-3-isopentenyl-4-methoxy-6-[(E)-4′-phenylbuten-1′-yl]benzoate]",5.75 µg/mL,> 6.17 µg/mL,5.95 µg/mL,5.17 µg/mL,51.1 ± 17%,–,64.7 ± 1.8%,–,–,–,–,–,–
"COC(=O)c1c(/C=C/c2ccccc2)cc(OC)c(C/C=C(\C)CCC=C(C)C)c1O [Compound 8o, methyl 2-hydroxy-3-(3′,7′-dimethyloctadien-2′,6′-yl)-4-methoxy-6-[(E)-styryl]benzoate]",0.82 µg/mL,2.36 µg/mL,0.92 µg/mL,2.96 µg/mL,69.3 ± 5.6%,–,70.6 ± 6.3%,–,–,–,significantly stronger than the lead compound cajanine,–,–
"COC(=O)c1c(/C=C/C2CCCCC2)cc(OC)c(CC=C(C)C)c1O [Compound 8p, methyl 2-hydroxy-3-isopentenyl-4-methoxy-6-[(E)-2-cyclohexyl-vinyl]benzoate]",10.3 µg/mL,> 2.06 µg/mL,11.4 µg/mL,21.1 µg/mL,82.3 ± 5.6%,the strongest activities,84.6 ± 5.9%,the strongest activities,–,–,–,–,–
"COC(=O)c1c(/C=C/c2ccc(OC(C)=O)cc2)cc(OC)c(CC=C(C)C)c1O [Compound 8q, methyl 2-hydroxy-3-isopentenyl-4′-methoxy-6-[(E)-4-acetoxystyryl]benzoate]",8.23 µg/mL,5.23 µg/mL,7.63 µg/mL,2.1 µg/mL,79.8 ± 5.8%,the strongest activities,80.5 ± 6.5%,the strongest activities,–,–,–,–,–
COC(=O)c1c(/C=C/c2ccncc2)cc(OC)c(CC=C(C)C)c1O [Compound 8r],4.65 µg/mL,6.43 µg/mL,3.14 µg/mL,4.01 µg/mL,74.5 ± 5.7%,–,69.8 ± 8.4%,–,–,–,–,–,–
COC(=O)/C(=C\c1cc(OC)c(CC=C(C)C)c(O)c1C(=O)OC)c1ccccc1 [Compound 8s],0.24 µg/mL,3.52 µg/mL,0.84 µg/mL,0.52 µg/mL,79.8 ± 5.2%,–,76.8 ± 5.4%,–,"stronger anti-HIV, HCV viral activities","stronger anti-HIV, HCV viral activities",–,–,–
